Source: patent publication US7138421B2, “Anti-androgenic pyrrolidines with tumor-inhibiting action” (Schring Aktiengesellschaft, priority 2003, dated 2006)

Tested on: LNCaP cells
Experiment: Inhibition of the proliferation of LNCaP cells (crystal violet assay)
Assay type: cell-based, human
Conditions: for inhibition at 1 µM / IC50: Homo sapiens, LNCaP; for inhibition at 1 µM: 1 μM test substance, compared to cell growth in the presence of 0.1 nmol of R1881, read-out: % Inhibition at 1 μM; for IC50: in the presence of 0.1 nmol of R1881, 7 to 8 days, read-out: IC50 inhibition of the proliferation of LNCaP cells; for antiproliferative action (in words): LNCaP cells
Description: For the proliferation assay, 6000 LNCaP cells/well (Horoszewicz et al. Cancer Res. 1983, 43, 1809–1817) in a microtiter plate (96-well) in 50 μl of RPMI1640 medium are grown with 5% CCS and cultivated as in Model 1. After 24 hours, the cells receive 50 μl of 2×-concentrated test substance, diluted in culture medium. The solvent concentration is 0.5% DMSO. After 4 days, the cells receive another 100 μl of 1×-concentrated test substance, diluted in culture medium. After 7 to 8 days, the proliferation rate of the cells is determined by means of crystal violet assay (Gillies et al. Anal. Biochem. 1986, 159, 109–113). To determine the antagonism, the substance treatment is performed in the presence of […] of R1881 (1:1000 dilution of ethanolic solution). Control cells receive only 0.5% DMSO. For the agonism, the cells are treated only with test substance (without R1881).

Row | SMILES | inhibition at 1 µM [%] | IC50 [nM] | antiproliferative action (in words)
1 | CC1(C)C(=O)N(c2ccc(C#N)c(C(F)(F)F)c2)C(=S)N1CCCCCCCCN1CC[C@H](O)C1 [Example 32, 4-[3-[8-[(S)-3-Hydroxypyrrolidin-1-yl]octyl]-4,4-dimethyl-5-oxo-2-thioxoimidazolidin-1-yl]-2-(trifluoromethyl)benzonitrile] | 101 | 12 | –
2 | COC[C@H]1CCCN1CCCCCCCCCN1C(=S)N(c2ccc(C#N)c(C(F)(F)F)c2)C(=O)C1(C)C [Example 20, 4-[3-[9-[(2R)-2-(Methoxymethyl)pyrrolidin-1-yl]nonyl]-4,4-dimethyl-5-oxo-2-thioxoimidazolidin-1-yl]-2-(trifluoromethyl)benzonitrile] | 101 | 29 | –
3 | COC[C@@H]1CCCN1CCCCCCCCCN1C(=S)N(c2ccc(C#N)c(C(F)(F)F)c2)C(=O)C1(C)C [Example 21, 4-[3-[9-[(2S)-2-(Methoxymethyl)pyrrolidin-1-yl]nonyl]-4,4-dimethyl-5-oxo-2-thioxoimidazolidin-1-yl]-2-(trifluoromethyl)benzonitrile] | 94 | 47 | –
4 | COC[C@@H]1CCCN1CCCCCCCCN1C(=S)N(c2ccc(C#N)c(C(F)(F)F)c2)C(=O)C1(C)C [Example 19, 4-[3-[8-[(2S)-2-(Methoxymethyl)pyrrolidin-1-yl]octyl]-4,4-dimethyl-5-oxo-2-thioxoimidazolidin-1-yl]-2-(trifluoromethyl)benzonitrile] | 97 | 25 | –
5 | CC1(C)C(=O)N(c2ccc(C#N)c(C(F)(F)F)c2)C(=S)N1CCCCCCCN1CCCC1 [Example 4, 4-[4,4-Dimethyl-5-oxo-3-[7-(pyrrolidin-1-yl)heptyl]-2-thioxoimidazolidin-1-yl]-2-(trifluoromethyl)benzonitrile] | 98 | 45 | –
6 | CC1(C)C(=O)N(c2ccc(C#N)c(C(F)(F)F)c2)C(=S)N1CCCCCCCCCN1CCC[C@@H]1CO [Example 12, 4-[3-[9-[(2R)-2-(Hydroxymethyl)pyrrolidin-1-yl]nonyl]-4,4-dimethyl-5-oxo-2-thioxoimidazolidin-1-yl]-2-(trifluoromethyl)benzonitrile] | 93 | 24 | –
7 | CC1(C)C(=O)N(c2ccc(C#N)c(C(F)(F)F)c2)C(=S)N1CCCCN1CCCC1 [Comparison 1, 4-[4,4-Dimethyl-5-oxo-3-[4-(pyrrolidin-1-yl)butyl]-2-thioxoimidazolidin-1-yl]-2-(trifluoromethyl)benzonitrile, reference compound] | 20 | 4300 | considerably reduced antiproliferative activity
8 | CC1(C)C(=O)N(c2ccc(C#N)c(C(F)(F)F)c2)C(=S)N1CCCCCCCN1C2CCC1CC(O)C2 (stereo not shown) [Example 23, 4-[3-[7-(3-Hydroxy-8-azabicyclo[3.2.1]oct-8-yl)heptyl]-4,4-dimethyl-5-oxo-2-thioxoimidazolidin-1-yl]-2-(trifluoromethyl)benzonitrile] | 79 | 48 | –
9 | CCC(O)(CC)[C@@H]1CCCN1CCCCCCCCN1C(=S)N(c2ccc(C#N)c(C(F)(F)F)c2)C(=O)C1(C)C [Example 47, 4-[3-[8-[(2S)-2-(1-Hydroxy-1-ethylpropyl)pyrrolidin-1-yl]octyl]-4,4-dimethyl-5-oxo-2-thioxoimidazolidin-1-yl]-2-(trifluoromethyl)benzonitrile] | 99 | 27 | –
10 | CC1(C)C(=O)N(c2ccc(C#N)c(C(F)(F)F)c2)C(=S)N1CCCCCCCCN1CC[C@@H](O)C1 [Example 28, 4-[3-[8-[(R)-3-Hydroxypyrrolidin-1-yl]octyl]-4,4-dimethyl-5-oxo-2-thioxoimidazolidin-1-yl]-2-(trifluoromethyl)benzonitrile] | 102 | 11 | –
11 | CC1CCCN1CCCCCCCN1C(=S)N(c2ccc(C#N)c(C(F)(F)F)c2)C(=O)C1(C)C (stereo not shown) [Example 35, 4-[4,4-Dimethyl-3-[7-(2-methylpyrrolidin-1-yl)heptyl]-5-oxo-2-thioxoimidazolidin-1-yl]-2-(trifluoromethyl)benzonitrile] | 92 | 30 | –
12 | COC[C@H]1CCCN1CCCCCCCN1C(=S)N(c2ccc(C#N)c(C(F)(F)F)c2)C(=O)C1(C)C [Example 16, 4-[3-[7-[(2R)-2-(Methoxymethyl)pyrrolidin-1-yl]heptyl]-4,4-dimethyl-5-oxo-2-thioxoimidazolidin-1-yl]-2-(trifluoromethyl)benzonitrile] | 98 | 18 | –
13 | CC1(C)C(=O)N(c2ccc(C#N)c(C(F)(F)F)c2)C(=S)N1CCCCCCN1CC[C@H](C(N)=O)C1 [Example 49, (S)-1-[6-[3-[4-Cyano-3-(trifluoromethyl)phenyl]-5,5-dimethyl-4-oxo-2-thioxoimidazolidin-1-yl]hexyl]pyrrolidine-4-carboxamide] | 110 | 32 | –
14 | CC1CCCN1CCCCCCCCN1C(=S)N(c2ccc(C#N)c(C(F)(F)F)c2)C(=O)C1(C)C (stereo not shown) [Example 36, 4-[4,4-Dimethyl-3-[8-(2-methylpyrrolidin-1-yl)octyl]-5-oxo-2-thioxoimidazolidin-1-yl]-2-(trifluoromethyl)benzonitrile] | 96 | 15 | –
15 | CC1(C)C(=O)N(c2ccc(C#N)c(C(F)(F)F)c2)C(=S)N1CCCCCCCN1CCC[C@@H]1CO [Example 8, 4-[3-[7-[(2R)-2-(Hydroxymethyl)pyrrolidin-1-yl]heptyl]-4,4-dimethyl-5-oxo-2-thioxoimidazolidin-1-yl]-2-(trifluoromethyl)benzonitrile] | 101 | 11 | –
16 | CC1(C)C(=O)N(c2ccc(C#N)c(C(F)(F)F)c2)C(=S)N1CCCCCCN1CCC[C@@H]1CO [Example 6, 4-[3-[6-[(2R)-2-(Hydroxymethyl)pyrrolidin-1-yl]hexyl]-4,4-dimethyl-5-oxo-2-thioxoimidazolidin-1-yl]-2-(trifluoromethyl)benzonitrile] | 102 | 55 | –
17 | CC1(C)C(=O)N(c2ccc(C#N)c(C(F)(F)F)c2)C(=S)N1CCCCCN1CCCC1 [Comparison 2, 4-[4,4-Dimethyl-5-oxo-3-[5-(pyrrolidin-1-yl)pentyl]-2-thioxoimidazolidin-1-yl]-2-(trifluoromethyl)benzonitrile, reference compound] | 38 | 2100 | considerably reduced antiproliferative activity
18 | CC1(C)C(=O)N(c2ccc(C#N)c(C(F)(F)F)c2)C(=S)N1CCCCCCCCN1CC[C@H](C(N)=O)C1 [Example 51, (S)-1-[8-[3-[4-Cyano-3-(trifluoromethyl)phenyl]-5,5-dimethyl-4-oxo-2-thioxoimidazolidin-1-yl]octyl]pyrrolidine-4-carboxamide] | 97 | 20 | –
19 | CC(C)(O)[C@@H]1CCCN1CCCCCCCCCN1C(=S)N(c2ccc(C#N)c(C(F)(F)F)c2)C(=O)C1(C)C [Example 41, 4-[3-[9-[(2S)-2-(1-Hydroxy-1-methylethyl)pyrrolidin-1-yl]nonyl]-4,4-dimethyl-5-oxo-2-thioxoimidazolidin-1-yl]-2-(trifluoromethyl)benzonitrile] | 89 | 48 | –
20 | CC(C)(O)[C@H]1CCCN1CCCCCCCCN1C(=S)N(c2ccc(C#N)c(C(F)(F)F)c2)C(=O)C1(C)C [Example 44, 4-[3-[8-[(2R)-2-(1-Hydroxy-1-methylethyl)pyrrolidin-1-yl]octyl]-4,4-dimethyl-5-oxo-2-thioxoimidazolidin-1-yl]-2-(trifluoromethyl)benzonitrile] | 115 | 11 | –
21 | CC(C)(O)[C@H]1CCCN1CCCCCCCN1C(=S)N(c2ccc(C#N)c(C(F)(F)F)c2)C(=O)C1(C)C [Example 43, 4-[3-[7-[(2R)-2-(1-Hydroxy-1-methylethyl)pyrrolidin-1-yl]heptyl]-4,4-dimethyl-5-oxo-2-thioxoimidazolidin-1-yl]-2-(trifluoromethyl)benzonitrile] | 113 | 26 | –
22 | CC1(C)C(=O)N(c2ccc(C#N)c(C(F)(F)F)c2)C(=S)N1CCCCCCCN1CC[C@@H](O)C1 [Example 27, 4-[3-[7-[(R)-3-Hydroxypyrrolidin-1-yl]heptyl]-4,4-dimethyl-5-oxo-2-thioxoimidazolidin-1-yl]-2-(trifluoromethyl)benzonitrile] | 95 | 57 | –
23 | COC[C@@H]1CCCN1CCCCCCCN1C(=S)N(c2ccc(C#N)c(C(F)(F)F)c2)C(=O)C1(C)C [Example 17, 4-[3-[7-[(2S)-2-(Methoxymethyl)pyrrolidin-1-yl]heptyl]-4,4-dimethyl-5-oxo-2-thioxoimidazolidin-1-yl]-2-(trifluoromethyl)benzonitrile] | 99 | 32 | –
24 | CC1(C)C(=O)N(c2ccc(C#N)c(C(F)(F)F)c2)C(=S)N1CCCCCCCCCN1CCC[C@H]1CO [Example 13, 4-[3-[9-[(2S)-2-(Hydroxymethyl)pyrrolidin-1-yl]nonyl]-4,4-dimethyl-5-oxo-2-thioxoimidazolidin-1-yl]-2-(trifluoromethyl)benzonitrile] | 88 | 16 | –
25 | CC1(C)C(=O)N(c2ccc(C#N)c(C(F)(F)F)c2)C(=S)N1CCCCCCCN1CC[C@H](O)C1 [Example 31, 4-[3-[7-[(S)-3-Hydroxypyrrolidin-1-yl]heptyl]-4,4-dimethyl-5-oxo-2-thioxoimidazolidin-1-yl]-2-(trifluoromethyl)benzonitrile] | 104 | 20 | –
